Measurements reported in patent publication US11136615B2 (PROMEGA CORPORATION, priority 2017, dated 2021).

How the values were obtained:
Type in all cases: physicochemical
[1] = Effect of ATT on luciferin stability (RP-HPLC); conditions: luciferins 1.0 mM, cationic detergent buffers pH 6.0, ATT 2.0 mM, 60° C., FIG. 3
Protocol: Representative luciferins were reconstituted (at final concentration of 1.0 mM) in buffers containing various cationic detergents at pH 6.0, with or without ATT (Sigma, at a final concentration of 2.0 mM). The mixture was incubated at 60° C. Aliquots (20 μL) were taken out at various time points, diluted with H2O (180 μL), and analyzed by RP-HPLC. The percentages of the components were calculated based on UV absorbance at 330 nm.

[2] = Thermal stability (T80) of Ultra-Glo™-based ATP detection reagent; conditions: 37° C.
Protocol: (FIG. 6). T80 (the storage time during which the complete ATP detection reagent produced ≥80% of the light output from the freshly made reagent), a parameter reflecting reagent thermal stability, was improved by 1 fold at 37° C. after addition of ATT. In particular, the T80 value in the absence of ATT (0 mM) was 4 days, whereas the T80 value in the presence of ATT (3 mM) was 8 days (FIG. 6A). Further, the combination of dehydroluciferin and ATT as additives further improved the reagent stability, increasing the T80 value to 18 days (FIG. 6B, at 3 mM ATT with 0.3 mM corresponding dehydro-compound).

[3] = Effect of ATT on pro-luciferin stability (RP-HPLC); conditions: 2-hydroxyethyl ester of luciferin methyl ether 1.0 mM, PBS pH 7.4, 5% DMSO, ATT 8.0 mM, 37° C., FIG. 4
Protocol: A stock solution of this compound in DMSO was added to PBS buffer at pH 7.4 to reach a final concentration at 1.0 mM and 5% DMSO. The mixture was incubated at 37° C., with or without ATT (Sigma, at a final concentration of 8.0 mM). Aliquots (20 μL) were taken out at various time points, diluted with H2O (180 μL), and analyzed by RP-HPLC. The percentages of the components were calculated based on UV absorbance at 330 nm.

[4] = Effect of ATT on pro-luciferin stability with or without TCEP (RP-HPLC); conditions: 2-hydroxyethyl ester of luciferin methyl ether 1.0 mM, PBS pH 7.4, 5% DMSO, ATT 8.0 mM, TCEP 10 mM, 37° C., FIG. 5
Protocol: ATT was also shown to be compatible with additives that are commonly used in bioluminescence systems. […] The mixture was incubated at 37° C., with or without ATT (Sigma, at a final concentration of 8.0 mM), and with or without TCEP (Thermo Scientific, at a final concentration of 10 mM).

dehydroluciferin formation [1]: reduced
luciferin thermal stability [1]: improved
T80 (storage time with ≥80% of the light output of freshly made reagent) ([2]; ATT 3 mM in complete ATP detection reagent, 4 days in the absence of ATT, FIG. 6A): 8 days
improvement of T80 after addition of ATT ([2]; complete ATP detection reagent): 1 fold
decomposition of the pro-luciferin compound [3]: slowed down
formation of the corresponding dehydroluciferin derivative [3]: reduced
stability of the pro-luciferin compound in the presence of TCEP [4]: improved
Structure (SMILES): Cc1n[nH]c(=S)[nH]c1=O [ATT, 6-methyl-3-thioxo-3,4-dihydro-1,2,4-triazin-5(2H)-one]
